The test system of this data set is rat QT and QTc intervals. Nature of the data set: Cardio toxicity: QT prolongation, ECG in anesthetized rats. It counts as in vivo. The source says:
The QT interval (time from beginning of the QRS complex and to the end of the T wave) of the ECG is a measure of the duration of ventricular depolarization and repolarization. When ventricular repolarization is delayed and the QT interval is prolonged, there is an increased risk of ventricular tachyarrhythmia, including torsade de points (potentially fatal polymorphic ventricular tachycardia). As the QT interval has an inverse relationship to heart rate, the measured QT intervals are generally corrected for heart rate in order to determine whether they are prolonged relative to the baseline.
The initial evaluation of cardiac safety by ECG measurements focuses on QTc duration of MWL001 50 mg/ml concentration.
Male Sprague-Dawley rats (280-300 g of weight) were used for electrocardiographic measurements at basal conditions as well as medicated with QND and MWL. […] Electrocardiograms were recorded using disk electrodes fitted subcutaneously near the right and left axial regions and at the xiphoid cartilage and secured by surgical clips for standard Lead II recording. […] All of the data was recorded (AdInstruments PowerLab 16/30, Australia) for off line analysis.
Heart rate (RR interval), QT interval and QTc (corrected QT interval) were calculated by ECG analysis module in the LabChart 7.2.1 software and manually screened by trained technicians. […]

Take `CCC=CCC=CCC=CCC=CCC=CCC=CCCC(=O)N1CC(O)CC1C(=O)O` (centres unmarked) [MWL001]: for the setting “high doses, short term of 2-3 hr, compared to Quinidine”, the cardiotoxic effect entry is listed as “no cardiotoxic effect”. For the same molecule, for the setting “i.v. 50-166 mg/kg, two hr period after injection”, the “prolongation of the QTc interval” value is listed as “did not result in prolongation”.

Values taken from patent US20130158070A1, “CONJUGATES OF POLYUNSATURATED FATTY ACIDS AND AMINE-CONTAINING COMPOUNDS AND USES THEREOF” (priority 2010, published 2013).
